The text below walks through data of US20230158006A1, “USE OF DIRECT THROMBIN INHIBITORS IN THE TREATMENT OF NEURODEGENERATIVE DISEASES” (priority 2020, published 2023).

SMILES strings stand for the structures. “Also recorded” adds a separate entry of the source.

Data set [1] relates to reactive oxygen species in brain endothelial cell cultures. As to the kind of experiment: ROS levels (DHE) in cultured brain endothelial cells. The note with it: for hypoxia-induced increase in ROS generation: 6 h hypoxia, p<0.001; for ROS level, mean signal intensity of DHE stained cells to non-stained cells: DTI 1 nM, mean ± SD. The format is cell-based, rat. From the text:
(§1) Culture and hypoxic exposure of rat brain endothelial cells: Brain endothelial cell cultures were obtained from rat brain micro-vessels, as previously described (Diglio et al., 1993). The purity of these cultures was confirmed using antibodies to the endothelial cell surface antigen Factor VIII. Endothelial cells used in this study (passages 8-15) were maintained in Dulbecco's modified Eagle's medium (DMEM, Sigma-Aldrich, St. Louis, Mo.) supplemented with 10% fetal bovine serum (FBS), 1% antibiotic/antimycotic, and 2 mM glutamine. Confluent endothelial cell cultures were washed three times with Hank's balanced salt solution (HBSS, Gibco, Grand Island, N.Y.) and then incubated at 37° C. with serum-free DMEM for 6 h under hypoxic (1% 02) or normoxic (21% 02) conditions.
(§2) Detection of reactive oxygen species in cell culture and mouse brain tissue sections: Brain endothelial cell cultures were grown on coverslips in 24-well plates, incubated at 37° C. in serum free media with or without dabigatran (DTI, 1 nM) and exposed to hypoxic (6 h, 1% 02) or normoxic (21% 02) conditions. Sections from frozen brain (10-20 µm thickness) were placed on coverslips in 24-well plates with 0.5 ml of PBS at room temperature. Brain sections and cell cultures were incubated with 5 pM of dihydroethidium (DH E) fluorescence dye (Life Technologies, Grand Island, N.Y.; D23107) and Hoechst33342 NucBlue® stain (Life Technologies, R37605) for 30 min in the dark at room temperature. DHE is a cell permeable compound which reacts with intracellular ROS to form oxyethidium, which emits a bright red color detectable by fluorescent microscopy. Following two washes with PBS, images were captured immediately using an Olympus IX71 microscope and analyzed using HAMAMATSU imaging software.
Brain endothelial cell cultures were incubated in serum-free media or serum free media plus DTI (1 nM) and exposed to hypoxia (1% 02) or normoxic (21% 02) conditions for 6 h. The cells were incubated for 30 min with 5 pM of Dihydroethidium (DHE, red) fluorescent dye and NucBlue stain (blue). ROS generation was assessed by quantitation of signal intensities of DHE stained cells to non-stained cells. Data represent mean signal intensity of DHE stained cells to non-stained cells±SD from at least 3 separate experiments performed in duplicate. ***p<0.001 vs. Control; a p<0.001 vs. Hypoxia.

In data set [2] the test system is TNFa, IL-6, IL-8, MMPs. As to the kind of experiment: Production of inflammatory proteins from endothelial cells in AD models.
Data set [3] deals with HIF-1a, thrombin, IL-6, MCP-1, MMP2. The experiment in a line: Immunofluorescence of cerebrovascular expression of HIF-1a and inflammatory proteins in AD transgenic mice. In kind it is in vivo. The note with it: 100 mg/kg daily for 34 weeks. On the procedure: (§3) Administration of thrombin inhibitor to mice and immunofluorescent staining of mice brain sections: Adult wild-type 3×TgAD—LaFerla (control) and 3×TgAD—LaFerla mice were purchased at 8 weeks of age from The Jackson Laboratory (Bar Harbor, Me.). Daily administration of the orally available direct thrombin inhibitor (DTI) dabigatran etexylate (Pradaxa®, Boehringer Ingelheim, Germany) (100 mg/kg) in PBS to AD mice and vehicle to control mice began at 18 weeks of age and continued daily for 34 weeks. DTI was administered in food. To ensure all food, and therefore drug, was consumed while maintaining ad libitum weight, mice were weighed, and food intake monitored daily. All animal procedures were performed in accordance with NIH “Guide for the Care and Use of Laboratory Animals” and Texas Tech University Health Sciences Center Institutional Animal Care and Use Committee (IACUC) guidelines.
Mice were euthanized, and brain tissue fixed with 10% neutral buffered formalin (NBF). The brain was removed and 1 mm blocks of tissue from cerebral cortex were post fixed in 10% NBF for additional 12 h and embedded in paraffin. […] Sections (3 per mouse) were incubated with DAPI solution at room temperature for 25 min and viewed using an Olympus IX71 microscope and quantified with HAMAMATSU imaging software. […]

In data set [4] the test system is HIF-1a, thrombin, IL-6, MCP-1, MMP2 mRNA. The experiment in a line: Real-time PCR of inflammatory gene expression in brain endothelial cells exposed to 6 h hypoxia. The note with it: 1 nM, p<0.01-0.001, FIG. 1. The format is cell-based, rat.
From the text: as §1
Real-time PCR analysis: RNA from cultured rat brain endothelial cells was prepared using the TRI Reagent RT (Molecular Research Center, Inc., Cincinnati, Ohio), according to manufacturer protocol. […] Fold difference between two samples (relative quantification) was determined by use of the delta-delta method [S1/S2=2−(T1−T2)], where S1 and S2 represent samples 1 and 2, and T1 and T2 represent the threshold cycles of samples 1 and 2, respectively. […]

Data set [5] relates to reactive oxygen species. As to the kind of experiment: ROS level (DHE) in frontal cortex brain sections of AD transgenic mice. In kind it is in vivo. The settings on record: DTI for 34 weeks, p<0.001 vs untreated AD mice. How it is done: Administration of thrombin inhibitor to mice and immunofluorescent staining of mice brain sections: Adult wild-type 3×TgAD—LaFerla (control) and 3×TgAD—LaFerla mice were purchased at 8 weeks of age from The Jackson Laboratory (Bar Harbor, Me.). Daily administration of the orally available direct thrombin inhibitor (DTI) dabigatran etexylate (Pradaxa®, Boehringer Ingelheim, Germany) (100 mg/kg) in PBS to AD mice and vehicle to control mice began at 18 weeks of age and continued daily for 34 weeks. DTI was administered in food. To ensure all food, and therefore drug, was consumed while maintaining ad libitum weight, mice were weighed, and food intake monitored daily. […]
as §2, with “Sections from frozen brain (10-20 µm thickness) were placed on coverslips in 24-well plates with 0.5 ml of PBS at room temperature.” left out, “DHE is a cell permeable compound which reacts with intracellular ROS to form oxyethidium, which emits a bright red color detectable by fluorescent microscopy.” left out, “software. […]” for “software.”

In data set [6] the test system is brain oxidative stress. As to the kind of experiment: Short treatment of transgenic Tg4510 AD mice, brain oxidative stress. In kind it is in vivo. The note with it: non-published results. On the procedure: Fifteen-month-old Tg4510 mice (The Jackson Laboratory, Bar Harbor, Me.) treated for one week with vehicle dimethyl sulfoxide (DMSO) (Spectrum Chemicals & Laboratory Products, New Brunswick, N.J.) or Dabigatran (Pradaxa®, Boehringer Ingelheim Pharmaceuticals, Inc., Ridgefield, Conn.) at doses of 100 mg/kg via oral gavage. Wild-type control mice were treated with vehicle for one week. Brains were collected and homogenized and protein expression was evaluated using western blot.

Data set [7] relates to rat brain endothelial cells. The experiment in a line: Cell survival by MTT assay, brain endothelial cell cultures exposed to hypoxia or normoxia. The format is cell-based.
From the text: as §1
Measurement of cell survival by MTT assay: Cells were washed with phosphate buffer saline (PBS) and incubated with the MTT reagent 3-(4,5-dimethylthiazol-2-yl)-2-5-diphenyl tetrazolium bromide (1:40 dilution) for 5-10 min at 37° C. The cells convert the MTT reagent to formazan which is quantified by colorimetric assay (Cell Titer 95 Aqueous solution cell proliferation assay, Promega, Madison, Wis.). The formazan product was read at 490 nm. The number of control cells, i.e., viable cells not exposed to any treatment, was defined as 100%.
Brain micro-vessel endothelial cell cultures were incubated with the DTI dabigatran (10 pM-100 nM), exposed to hypoxia for 6 h and cell viability measured by MTT assay. There was a modest (19%) but significant (p<0.05) increase in cell survival at 1-10 nM DTI while DTI doses in excess of 100 nM were toxic.
For orientation: Tetrazolium assays rely on reduction of a dye to a coloured formazan, in cell work by metabolically active cells.

In data set [8] the test system is HIF-1a, thrombin, IL-6, MCP-1, MMP2 mRNA. The experiment in a line: Real time PCR of brain tissue from AD transgenic mice. The note with it: 100 mg/kg daily for 34 weeks. In kind it is in vivo. On the procedure: as §3
Real-time PCR analysis: RNA from cultured rat brain endothelial cells was prepared using the TRI Reagent RT (Molecular Research Center, Inc., Cincinnati, Ohio), according to manufacturer protocol. […] Fold difference between two samples (relative quantification) was determined by use of the delta-delta method [S1/S2=2−(T1−T2)], where S1 and S2 represent samples 1 and 2, and T1 and T2 represent the threshold cycles of samples 1 and 2, respectively.

On to `CCCCCCOC(=O)NC(=N)c1ccc(NCc2nc3cc(C(=O)N(CCC(=O)OCC)c4ccccn4)ccc3n2C)cc1`, for which the “hypoxia-induced increase in ROS generation” value is “inhibited” in data set [1] and “blocked” in data set [1] (listed as DTI). Also, the “ROS level, mean signal intensity of DHE stained cells to non-stained cells” value in data set [1] (Control + DTI: normoxic (21% O2) 6 h) is reported as 0.65±; in data set [1] (Hypoxia + DTI: hypoxia (1% O2) 6 h, p<0.001 vs. Hypoxia) it was 0.92 ± 0.06a. The “production of TNFa, IL-6, IL-8, MMPs and other inflammatory proteins from endothelial cells” value in data set [2] is on record as “reducing the production”. Moreover, the “cerebrovascular expression of HIF-1a, thrombin, IL-6, MCP-1, MMP2 proteins” value in data set [3] (FIG. 2) is recorded as “significantly decreases expression”; in data set [3] (FIG. 2, listed as DTI), “reduced expression of these proteins”. The “hypoxia-mediated effects on inflammatory gene expression (HIF-1a, thrombin, IL-6, MCP-1, MMP2 mRNA)” value in data set [4] is recorded as “reduced hypoxia-mediated effects on inflammatory gene expression”. The “ROS generation (DHE level) in brain sections” value is recorded as “inhibited; also recorded: significantly decreases expression” in data set [5] (FIG. 4) and “decreased DHE level” in data set [5] (FIG. 4, listed as DTI). Further, the brain oxidative stress entry in data set [6] is on record as “lowering brains' oxidative stress”. Further, the “increase in cell survival” value in data set [7] (hypoxia 6 h, 1-10 nM DTI, p<0.05) stood at 19%. Also, in data set [7] (hypoxia 6 h, MTT), the “DTI doses toxic to cells” value is listed as over 100 nM. Besides, the “effect on cell survival under normoxic conditions” value in data set [7] (normoxic, doses under 100 nM, data not shown) is recorded as “did not affect cell survival”. Moreover, the “RNA levels of HIF-1a, thrombin, IL-6, MCP-1, MMP2 in brain tissue” value in data set [8] (p<0.01 to p<0.001, FIG. 3) was “reduces expression”; in data set [8] (p<0.01 to p<0.001, FIG. 3, listed as DTI), “decrease in RNA levels”.
